Experimental data as given in US12097174B2, “Methods and agents that enhance myogenic progenitor cell engraftment” (President and Fellows of Harvard College, priority 2018, dated 2024).

System: ZeMPCs
Assay: Calcium imaging in Fura-2, AM treated ZeMPCs (single-cell imaging)
Assay type: cell-based, zebrafish
Conditions: 10 μM NFA, 5 μM LPA, 10 μM ionomycin; 10-20 seconds after loading
Description: Fura-2, AM treated ZeMPCs were exposed to 10 μM NFA, 5 μM LPA, 10 μM lonomycin (as a positive control) and DMSO (as vehicle control) to visualize their effect on intracellular calcium ion concentration using single-cell imaging. […] Scale bar 50 μm.
The ZeMPCs and C2C12 cells were incubated with Fura-2, AM (Thermo Fisher Sci F1225), a cell permeant fluorescent calcium ion indicator, for 45 minutes at 28.5° C. and 37° C., respectively, followed by imaging with Celldiscoverer7 Microscope (Zeiss). 20 seconds after imaging initiation the treatment was added to the cells and continued for a total of 2-3 minutes.

| Compound | intracellular calcium ion concentration |
| --- | --- |
| O=C(O)c1cccnc1Nc1cccc(C(F)(F)F)c1 [NFA, niflumic acid] | increase |
| lysophosphatidic acid [LPA] | increase |
